From ChEMBL document CHEMBL1122681, “(Acylaryloxy)acetic acid diuretics. 5. [(2-Alkyl- and 2,2-disubstituted-1,3-dioxo-5-indanyl)oxy]acetic acids” (J Med Chem, 1984)

Columns and labels:
Rattus norvegicus [1] = test: Compound was evaluated for diuretic activity administered orally in female rats measured as milliequivalents of Cl-x 100 / cage at 3 mg/kg; assay type: functional, Urine; conditions: route oral
[2] = volume of urine at 3 mg/kg; assay type: ADME, organism-based; design: dose 3 mg/kg; conditions: in vivo
Rattus norvegicus [3] = test: Compound was evaluated for diuretic activity administered orally in female rats measured as milliequivalents of K+x 100 / cage at 9 mg/kg; assay type: functional, Urine; conditions: route oral
Pan troglodytes [4] = test: Compound was evaluated for diuretic activity in chimpanzee measured as clearance of […] and urate after intra venous administration of 1.25 mg/kg.; assay type: functional, Urine
Canis familiaris [5] = test: Compound was evaluated for diuretic activity, in female mongrel dogs by measuring amount of Cl- in urine after iv administration of 5 mg/kg (control/compound treatment results) Control = 8; assay type: functional, Canis lupus familiaris
Pan troglodytes [6] = test: Compound was evaluated for diuretic activity in chimpanzee measured as increase in the number of microequivalents of K+ /min at 1.25 mg/kg; assay type: functional, Urine
Pan troglodytes [7] = test: Compound was evaluated for diuretic activity in chimpanzee measured as increase in the number of microequivalents of cl- /min at 1.25 mg/kg; assay type: functional, Urine
Rattus norvegicus [8] = test: Compound was evaluated for diuretic activity administered orally in female rats measured as milliequivalents of Cl-+x 100 / cage at 27 mg/kg; assay type: functional, Urine; conditions: route oral
Rattus norvegicus [9] = test: Compound was evaluated for diuretic activity administered orally in female rats measured as milliequivalents of Na+x 100 / cage at 9 mg/kg; assay type: functional, Urine; conditions: route oral
Rattus norvegicus [10] = test: Compound was evaluated for diuretic activity administered orally in female rats measured as milliequivalents of Na+x 100 / cage at 3 mg/kg; assay type: functional, Urine; conditions: route oral
Rattus norvegicus [11] = test: Compound was evaluated for diuretic activity administered orally in female rats measured as milliequivalents of Na+x 100 / cage at 81 mg/kg; assay type: functional, Urine; conditions: route oral
[12] = volume of urine at 27 mg/kg; assay type: ADME, organism-based; design: dose 27 mg/kg; conditions: in vivo
Pan troglodytes [13] = test: Compound was evaluated for diuretic activity in chimpanzee measured as increase in the number of microequivalents of Na+ /min at 1.25 mg/kg; assay type: functional, Urine
Rattus norvegicus [14] = test: Compound was evaluated for diuretic activity administered orally in female rats measured as milliequivalents of Na+x 100 / cage at 27 mg/kg; assay type: functional, Urine; conditions: route oral
[15] = volume of urine at 9 mg/kg; assay type: ADME, organism-based; design: dose 9 mg/kg; conditions: in vivo
Canis familiaris [16] = test: Compound was evaluated for diuretic activity, in female mongrel dogs by measuring amount of K+ in urine after iv administration of 5 mg/kg (control/compound treatment results) Control = 5; assay type: functional, Canis lupus familiaris
Pan troglodytes [17] = test: Compound was evaluated for diuretic activity in chimpanzee measured as increase in the number of microequivalents of Cl- electrolyte/min at 5 mg/kg; assay type: functional, Urine
Rattus norvegicus [18] = test: Compound was evaluated for diuretic activity administered orally in female rats measured as milliequivalents of K+x 100 / cage at 27 mg/kg; assay type: functional, Urine; conditions: route oral
Rattus norvegicus [19] = test: Compound was evaluated for diuretic activity administered orally in female rats measured as milliequivalents of Cl-x 100 / cage at 81 mg/kg; assay type: functional, Urine; conditions: route oral
Canis familiaris [20] = test: Compound was evaluated for diuretic activity, in female mongrel dogs by measuring volume of urine, after iv administration of 5 mg/kg (control/compound treatment results) Control = 1; assay type: ADME, organism-based, Canis lupus familiaris; design: dose 5 mg/kg, route intravenous; conditions: dog, in vivo
Pan troglodytes [21] = test: Compound was evaluated for diuretic activity in chimpanzee measured as increase in the number of microequivalents of K+ /min at 5 mg/kg; assay type: functional, Urine
Rattus norvegicus [22] = test: Compound was evaluated for diuretic activity administered orally in female rats measured as milliequivalents of K+x 100 / cage at 81 mg/kg; assay type: functional, Urine; conditions: route oral
Pan troglodytes [23] = test: Compound was evaluated for diuretic activity in chimpanzee measured as clearance of […] and urate after peroral administration of 5 mg/kg; assay type: functional, Urine; conditions: route oral
Rattus norvegicus [24] = test: Compound was evaluated for diuretic activity administered orally in female rats measured as milliequivalents of K+x 100 / cage at 3 mg/kg; assay type: functional, Urine; conditions: route oral
Pan troglodytes [25] = test: Compound was evaluated for diuretic activity in chimpanzee measured as increase in volume of urine at 0.125 mg/kg; assay type: functional
Rattus norvegicus [26] = test: Compound was evaluated for diuretic activity administered orally in female rats measured as milliequivalents of Cl-x 100 / cage at 9 mg/kg; assay type: functional, Urine; conditions: route oral
[27] = volume of urine at 81 mg/kg; assay type: ADME, organism-based; design: dose 81 mg/kg; conditions: in vivo
Pan troglodytes [28] = test: Compound was evaluated for diuretic activity in chimpanzee measured as increase in volume of urine at 1 mg/kg; assay type: functional
Canis familiaris [29] = test: Compound was evaluated for diuretic activity, in female mongrel dogs by measuring amount of Na+ in urine after iv administration of 5 mg/kg (control/compound treatment results) Control = 42; assay type: functional, Canis lupus familiaris
Pan troglodytes [30] = test: Compound was evaluated for diuretic activity in chimpanzee measured as increase in the number of microequivalents of Na+ /min at 5 mg/kg; assay type: functional, Urine
[31] = Volume of urine at 3 mg/kg; assay type: ADME, organism-based; design: dose 3 mg/kg; conditions: in vivo
Canis familiaris [32] = test: Compound was evaluated for diuretic activity, administered orally in female mongrel dogs (5 mg/kg) measured as milliequivalents of Na; assay type: functional, Canis lupus familiaris, Urine
Canis familiaris [33] = test: Compound was evaluated for diuretic activity, administered orally in female mongrel dogs (5 mg/kg) measured as milliequivalents of K; assay type: functional, Canis lupus familiaris, Urine
Canis familiaris [34] = test: Compound was evaluated for diuretic activity, administered orally in female mongrel dogs (5 mg/kg) measured as milliequivalents of Cl-; assay type: functional, Canis lupus familiaris, Urine
[35] = Volume of urine at 81 mg/kg; assay type: ADME, organism-based; design: dose 81 mg/kg; conditions: in vivo
[36] = Volume of urine at 27 mg/kg; assay type: ADME, organism-based; design: dose 27 mg/kg; conditions: in vivo
Canis familiaris [37] = test: Compound was evaluated for diuretic activity, in female mongrel dogs by measuring amount of Na+ in urine after iv administration of 5 mg/kg (control/compound treatment results) Control = 24; assay type: functional, Canis lupus familiaris
Canis familiaris [38] = organism: Canis familiaris; test: Volume of urine in dog; assay type: ADME, organism-based, Canis lupus familiaris; conditions: in vivo
Pan troglodytes [39] = test: Compound was evaluated for diuretic activity in chimpanzee measured as increase in the number of microequivalents of Cl- electrolyte/min at 1 mg/kg; assay type: functional, Urine
[40] = Volume of urine at 9 mg/kg; assay type: ADME, organism-based; design: dose 9 mg/kg; conditions: in vivo
Pan troglodytes [41] = test: Compound was evaluated for diuretic activity in chimpanzee measured as increase in volume of urine at 5 mg/kg; assay type: functional
Canis familiaris [42] = test: Compound was evaluated for diuretic activity, in female mongrel dogs by measuring amount of Cl- in urine after iv administration of 5 mg/kg (control/compound treatment results) Control = 9; assay type: functional, Canis lupus familiaris
Pan troglodytes [43] = test: Compound was evaluated for diuretic activity in chimpanzee measured as increase in the number of microequivalents of Na+ /min at 1 mg/kg; assay type: functional, Urine
Canis familiaris [44] = test: Compound was evaluated for diuretic activity, in female mongrel dogs by measuring volume of urine, after iv administration of 5 mg/kg (control/compound treatment results) Control = 2; assay type: ADME, organism-based, Canis lupus familiaris; design: dose 5 mg/kg, route intravenous; conditions: dog, in vivo
Pan troglodytes [45] = test: Compound was evaluated for diuretic activity in chimpanzee measured as clearance of […] and urate after intra venous administration of 1 mg/kg; assay type: functional, Urine
Pan troglodytes [46] = test: Compound was evaluated for diuretic activity in chimpanzee measured as increase in the number of microequivalents of K+ /min at 1 mg/kg; assay type: functional, Urine

Compound | Activity (Rattus norvegicus [1]) | Activity (Rattus norvegicus [3]) | Activity (Rattus norvegicus [8]) | Activity (Rattus norvegicus [9]) | Activity (Rattus norvegicus [10]) | Activity (Rattus norvegicus [11]) | Activity (Rattus norvegicus [14]) | Activity (Canis familiaris [16]) [u equiv min-1] | Increase (Pan troglodytes [17]) | Activity (Rattus norvegicus [18]) | Activity (Rattus norvegicus [19]) | Increase (Pan troglodytes [21]) | Activity (Rattus norvegicus [22]) | Delta C urate / delta C insulin (Pan troglodytes [23]) | Activity (Rattus norvegicus [24]) | Activity (Rattus norvegicus [26]) | Increase in volume (Pan troglodytes [28]) [mL/min] | Increase (Pan troglodytes [30]) | further results
CCC1(C)C(=O)c2cc(OCC(=O)O)c(Cl)c(Cl)c2C1=O (centres undefined) | 64 | 35 | 130 | 80 | 50 | 164 | 101 | 7 | 226 | 43 | 250 | 30 | 89 | 0.007 | 46 | 97 | 2 | 217 | Urine volume [2]: 30 mL; Delta C urate / delta C insulin (Pan troglodytes [4]): 0.43; Activity (Canis familiaris [5]): 179 u equiv min-1; Increase (Pan troglodytes [6]): 41; Increase (Pan troglodytes [7]): 267; Urine volume [12]: 27 mL; Increase (Pan troglodytes [13]): 187; Urine volume [15]: 29 mL; Urine volume (Canis familiaris [20]): 2 mL/min; Increase in volume (Pan troglodytes [25]): 1.4 mL/min; Urine volume [27]: 31 mL; Activity (Canis familiaris [29]): 247 u equiv min-1
Cc1c(OCC(=O)O)cc2c(c1Cl)C(=O)C1(CCCC1)C2=O [(ACYLARYLOXY)ACETIC ACID] | 10 | 30 | 30 | 26 | 14 | 47 | 35 | 23 | 211 | 32 | 61 | 39 | 29 | 0.053 | 23 | 15 | 1.1 | 170 | Urine volume [31]: 29 mL; Activity (Canis familiaris [32]): 2; Activity (Canis familiaris [33]): 1; Activity (Canis familiaris [34]): 3; Urine volume [35]: 29 mL; Urine volume [36]: 33 mL; Activity (Canis familiaris [37]): 305 u equiv min-1; Urine volume (Canis familiaris [38]): 253 mL; Increase (Pan troglodytes [39]): 117; Urine volume [40]: 29 mL; Increase in volume (Pan troglodytes [41]): -0.5 mL/min; Activity (Canis familiaris [42]): 245 u equiv min-1; Increase (Pan troglodytes [43]): 59; Urine volume (Canis familiaris [44]): 5 mL/min; Delta C urate / delta C insulin (Pan troglodytes [45]): 0.088; Increase (Pan troglodytes [46]): 37
